From patent US20060270862A1, “Analogs of discodermolide and dictyostatin-1, intermediates therefor and methods of synthesis thereof” (priority 2002, published 2006)
Read-outs that look alike come from different tables or passages of the source.

How the values were obtained:
[1] = system: paclitaxel binding site on tubulin; test: Paclitaxel binding site inhibition assay ([3H]paclitaxel displacement from microtubules); set-up: species or system bovine; settings: 4 μM test agent, 2 μM [3H]paclitaxel, microtubules from 2 μM tubulin and 20 μM dideoxyGTP
Description: (§1) General. Tubulin without microtubule-associated proteins was prepared from fresh bovine brains[32] The normoisotopic and tritiated forms of paclitaxel and normoisotopic docetaxel were provided by the Drug Synthesis and Chemistry Branch, National Cancer Institute. (+)-Discodermolide was from Novartis Pharmaceutical Corporation. Ca^2+- and Mg^2+-free RPMI-1640 culture medium were from GIBCO/BRL-Life Technologies. Fetal bovine serum (FBS) was from Hyclone. Cell lines were obtained from American Type Culture Collection (Manassas, Va.).
Paclitaxel binding site inhibition assay. A stock solution of [^3H]paclitaxel (26.8 μM, 16.2 Ci/mmol), obtained from the NCI, was prepared in 37% (v/v) DMSO. The test agents were prepared in 25% (v/v) DMSO-0.75 M monosodium glutamate (prepared from a 2M stock solution adjusted to pH 6.6 with HCl). The radiolabeled paclitaxel and test agents, as indicated in terms of final concentrations, were mixed in equal volumes and warmed to 37° C. A reaction mixture (50 μL) containing 0.75 M monosodium glutamate, 4.0 μM tubulin, and 40 μM ddGTP (a non-hydrolyzable analog of GTP) was prepared and incubated at 37° C. for 30 min to preform microtubules. An equivalent volume of drug mixture with [^3H]paclitaxel was added to preformed polymer and incubated for 30 min at 37° C. Bound [^3H]paclitaxel was separated from free drug by centrifugation of the reaction mixtures at 14000 rpm for 20 min at room temperature. Non-specific binding was determined by addition of a 12-fold excess of docetaxel. Radioactive counts from the supernatant (50 μL) were determined by scintillation spectrometry. Bound [^3H]paclitaxel was calculated from the following: total paclitaxel added to each reaction mixture minus the paclitaxel present in the supernatant (free drug). The % bound values were normalized to the control values with no inhibitor added.

2008 (ovarian) = test: Cell growth inhibition (MTS), 2008; assay type: cell-based, human; settings: Homo sapiens
Description: (§2) Cell Growth Inhibition[34] Cells were plated (500-2000 cells/well depending on the cell line) in 96-well microplates, allowed to attach and grow for 48 h, then treated with vehicle (4% DMSO, a concentration that allowed doubling times of 24 h or less) or test agent (50, 10, 2, 0.4 and 0.08 μM for the new agents; 0.001, 0.005, 0.010, 0.020 and 0.100 μM for paclitaxel and discodermolide) for the given times. One plate consisted of cells from each line used for a time zero cell number determination. The other plates in a given determination contained eight wells of control cells, eight wells of medium and each agent concentration tested in quadruplicate. Cell numbers were obtained spectrophotometrically (absorbance at 490 nm minus that at 630 nm) in a Dynamax plate reader after treatment with 3-(4,5-dimethylthiazol-2-yl)-5-(3-carboxymethoxyphenyl)-2-(4-sulfophenyl)-2H-tetrazolium (MTS) using phenazine methanesulfonate as the electron acceptor. After initial screening with the above 5-fold dilutions, fifty percent growth inhibitory concentration (GI50) values were determined for each agent by repeating the screen using 2-fold dilutions (five concentrations) centered on the initial estimated GI50 concentration, again in quadruplicate.

tubulin = assay type: biochemical, bovine; settings: for MT stabilizing activity (%): tubulin assembly induced by test agent at 10 μM vs. 10 μM paclitaxel (100%), single determinations at 30° C.
Description: as §1
Tubulin Polymerization[32] Tubulin assembly was followed in a Beckman-Coulter 7400 spectrophotometer, equipped with an electronic Peltier temperature controller, reading absorbance (turbidity) at 350 nm. Reaction mixtures (0.25 mL final volume) contained tubulin (final concentration 10 μM; 1 mg/mL), monosodium glutamate (0.8 M from a stock solution adjusted to pH 6.6 with HCl), DMSO (final volume 4% v/v), and differing concentrations of test agent where indicated. Reaction mixtures without test agent were cooled to 0° C. and added to cuvettes held at 0.25-0.5° C. in the spectrophotometer. Test agent in DMSO was then rapidly mixed in the reaction mixture. Each run contained one positive control (paclitaxel, 10 μM final concentration) and one negative control (DMSO only). Baselines were established at 0.25-2.5° C. and temperature was rapidly raised to 30° C. (in approximately 1 min) and held there for 20 min.

PC3 (prostate) = test: Cell growth inhibition (MTS), PC3; assay type: cell-based; settings: Homo sapiens, read-out: GI50 PC3 (prostate)
Description: as §2

MDA-MB231 (breast) = test: Cell growth inhibition (MTS), MDA-MB231; assay type: cell-based, human; settings: Homo sapiens
Description: as §2

C=C/C=C\[C@H](C)[C@H](OC(N)=O)[C@@H](C)[C@H](O)[C@@H](C)C/C(C)=C\[C@H](C)[C@@H](O)[C@@H](C)/C=C\[C@@H](O)C[C@@H]1OC(=O)[C@H](C)[C@@H](O)[C@H]1C [discodermolide, (+)-discodermolide]
Displacement of [3H]paclitaxel (%) [1]: 64 ± 2%
Displacement of [3H]paclitaxel (%) ([1]; N = 6, means ± SD): 64 ± 2%
GI50 (2008 (ovarian); 72 h, read-out: GI50 2008 (ovarian)): 0.072 ± 0.005 µM
GI50 (2008 (ovarian); 72 h, read-out: GI50 2008 (ovary)): 0.072 ± 0.005 µM
microtubule assembly compared with paclitaxel (in words) (tubulin; FIG. 6A, equivalent assembly at lower concentrations and temperatures): superior to paclitaxel
properties of the induced polymer: speed of induction, resistance to cold-induced disassembly (in words) (tubulin; FIGS. 6A, 6C, 6D, analogs at somewhat lower potencies than discodermolide): more resistant to cold-induced disassembly
MT stabilizing activity (%) (tubulin): >100%
GI50 (PC3 (prostate); 72 h): 0.067 ± 0.004 µM
GI50 (MDA-MB231 (breast); MDA-MB-231, 72 h, read-out: GI50 MDA-MB231 (breast)): 0.016 ± 0.003 µM
GI50 (MDA-MB231 (breast); MDA-MB-231, 72 h, read-out: GI50 MDA-MB-231 (breast)): 0.016 ± 0.003 µM

CC(=O)O[C@H]1C(=O)[C@@]2(C)[C@H]([C@H](OC(=O)c3ccccc3)[C@]3(O)C[C@H](OC(=O)[C@H](O)[C@@H](NC(=O)c4ccccc4)c4ccccc4)C(C)=C1C3(C)C)[C@]1(OC(C)=O)CO[C@@H]1C[C@@H]2O [paclitaxel, reference compound]
Displacement of [3H]paclitaxel (%) [1]: 37 ± 1%
GI50 (2008 (ovarian); 72 h continuous exposure, mean ± SD, N = 4, read-out: GI50 2008 (ovarian)): 0.0092 ± 0.0016 µM
MT stabilizing activity (%) (tubulin): 100%
GI50 (PC3 (prostate); 72 h continuous exposure, mean ± SD, N = 4): 0.015 ± 0.002 µM
GI50 (MDA-MB231 (breast); MDA-MB-231, 72 h continuous exposure, mean ± SD, N = 4, read-out: GI50 MDA-MB231 (breast)): 0.0024 ± 0.0016 µM
